Assays:
[1] = Fluorescence-based microplate assay (OPDA) of ascorbic acid oxidation; type: physicochemical
Description: (§1) FIGS. 4-5 is a diagram showing a fluorescence-based microplate assay that inhibits ascorbic acid oxidation, and FIG. 4 is an experimental result using OPDA, a substance that becomes fluorescent by binding to DHA. […] FIG. 5 is a comparison of the antioxidant activity of remaining ascorbic acid using DCPIP after AptaminC3T31+ascorbic acid and ascorbic acid were left for 8 weeks under the same conditions. AptaminC3T31+ascorbic acid maintained 50% antioxidant activity even after 8 weeks,
The oxidation of ascorbic acid was measured in reverse with detecting the oxidized product dehydroascorbic acid (DHA) with modifying a method described in Vislisel et al. (Vislisel, J. M. Schafer, F. O. and Buettner, G. R. (2007) Analytical biochemistry, 365, 31-39).
Briefly, aptamers were incubated with AA (10.3 μM) at 4× concentration for 30 minutes at room temperature before addition of 25 μM H2O2 (Sigma). Before the addition of OPDA dye (Sigma), the oxidizing agent sample was added and incubated at room temperature for 10 minutes. Immediately after addition of the dye (954.6 μM) sample, and read at excitation 345 nm; emission: 425 nm with a SpectraMax® plate reader (Molecular Devices) for 45 minutes at intervals of 60 seconds until the control converges. […] All fluorescence assays were performed in black 384-well plates (greiner bio-one). […]

[2] = ITC (Isothermal Titration calorimetry) of the aptamer binding to ascorbic acid; settings: FIG. 7, read-out: binding affinity between the aptamer and ascorbic acid
[3] = Storage of vitamin C with aptamer at room temperature for 8 weeks, reducing activity by DCPIP; type: physicochemical; settings: FIG. 5
Description: as §1
The aptamin C of the present invention was maintained at room temperature for 8 weeks and the reducing activity of ascorbic acid was measured using DCPIP (2,6-Dichlorophenolindophenol).

In the case of “AptaminC3T31: DNA aptamer binding vitamin C (ascorbic acid); SEQ ID NO: 1, GTGGAGGCGGTGGCCAGTCTCGCGGTGGCGGC (DNA GTGGAGGCGGTGGCCAGTCTCGCGGTGGCGGC; listed as DNA, chemistry not given here)”, the “oxidation of ascorbic acid (DHA detected with OPDA fluorescence)” value ([1]; ascorbic acid treated with hydrogen peroxide, FIG. 4) is reported as “oxidation of ascorbic acid is prevented”, the “ability to protect AA from oxidation” value ([1]; screen of top 20 candidate aptamers from SELEX) is reported as “best effect” and the Kd [2] is reported as 900 nM. For the same substance, the “increase of shelf life compared to ascorbic acid alone” value [3] was ≥ 4 times.

— US12227747B2, “Composition comprising aptamer as active ingredient for treatment and prevention of degenerative brain disease” (Nexmos Co., LTD, priority 2018, dated 2025)
